Data: patent publication US10385024B2, “Compounds and methods for inhibiting NHE-mediated antiport in the treatment of disorders associated with fluid retention or salt overload and gastrointestinal tract disorders” (Ardelyx, Inc., priority 2012, dated 2019)

How the values were obtained:
human NHE-3 = target: T1, human NHE-3 (Homo sapiens, UniProt P48764); experiment: Cell-based assay of NHE-3 activity (human NHE3 inhibition assay); conditions: OK cells with human NHE-3 gene, BCECF pH dye, 0-30 μM test compound; for IC50: read-out: Human NHE3 pIC50 (converted)
T1 construct: expressed in transfected cells; host or cells: Opossum kidney (OK) cells (ATCC), transfected by electroporation
T1 sequence (P48764 26-834): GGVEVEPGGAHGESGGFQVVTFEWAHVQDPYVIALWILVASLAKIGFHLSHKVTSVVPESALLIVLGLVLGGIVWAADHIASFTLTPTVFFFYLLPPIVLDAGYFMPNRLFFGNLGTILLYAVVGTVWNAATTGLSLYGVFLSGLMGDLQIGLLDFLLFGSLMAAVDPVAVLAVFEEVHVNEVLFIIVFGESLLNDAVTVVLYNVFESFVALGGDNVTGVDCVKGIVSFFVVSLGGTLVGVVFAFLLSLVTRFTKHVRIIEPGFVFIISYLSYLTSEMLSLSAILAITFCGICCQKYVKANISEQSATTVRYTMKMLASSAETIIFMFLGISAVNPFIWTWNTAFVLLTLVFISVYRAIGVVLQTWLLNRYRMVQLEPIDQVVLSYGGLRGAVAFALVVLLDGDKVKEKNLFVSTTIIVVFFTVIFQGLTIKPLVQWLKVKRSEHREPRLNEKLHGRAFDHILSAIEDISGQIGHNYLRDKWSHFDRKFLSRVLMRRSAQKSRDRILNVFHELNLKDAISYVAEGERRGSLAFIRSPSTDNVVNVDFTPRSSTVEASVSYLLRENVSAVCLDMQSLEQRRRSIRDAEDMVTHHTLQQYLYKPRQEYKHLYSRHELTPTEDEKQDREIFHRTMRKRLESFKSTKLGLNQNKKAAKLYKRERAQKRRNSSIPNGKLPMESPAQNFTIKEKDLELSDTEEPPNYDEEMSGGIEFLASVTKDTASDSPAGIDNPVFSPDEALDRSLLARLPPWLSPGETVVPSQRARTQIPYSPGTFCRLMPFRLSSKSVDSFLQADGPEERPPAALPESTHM
Method in brief: (§1)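 Opossum kidney cells electroporated with rat or human NHE-3, loaded with 5 μM BCECF-AM in NH4Cl-HEPES pH 7.4 for 30 min at RT, then acidified 10 min in Na+-free choline HEPES. Na+-dependent pH recovery rates from BCECF fluorescence, averaged over ≥2 replicates, gave pIC50.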

Rat NHE-3 [1] = target: T2, Rat NHE-3 (Rattus norvegicus, UniProt P26433); experiment: Cell-based assay of NHE-3 activity (rat NHE-3 prompt inhibition); conditions: OK cells with rat NHE-3 gene, compound present during pH recovery; for IC50: read-out: Rat NHE3 pIC50 (prompt) (converted)
T2 construct: expressed in transfected cells; host or cells: Opossum kidney (OK) cells (ATCC), transfected by electroporation
Method in brief: as §1

Rat NHE-3 [2] = target: T2, Rat NHE-3; experiment: Cell-based assay of NHE-3 activity (persistent inhibition, after washout); conditions: OK cells with rat NHE-3 gene, 60 min incubation, recovery initiated 40 min after compound washout; for IC50: read-out: Rat NHE3 pIC50 (persistent) (converted)
Method in brief: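 OK cells transiently expressing rat NHE-3 were exposed to 0-30 μM compound in NaCl-HEPES pH 7.4 for 60 min, then washed free of drug before NH4Cl/BCECF-AM loading and acid-loading in Na+-free choline buffer. Na+-dependent pH recovery rates (mean of ≥2 replicates) gave pIC50.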

[3] = test system: absorption of sodium from the intestinal lumen; experiment: Inhibition of intestinal sodium absorption (urinary sodium and fecal form); type: in vivo, Sprague-Dawley rats; conditions: rat; for response vs control in vivo at 3 mg/kg: 3 mg/kg oral gavage, urine 16 h post-dose, asterisks = significance vs vehicle (*P<0.05, **P<0.01, ***P<0.001), read-out: uNa (% of vehicle)
Procedure: Urinary sodium concentration and fecal form were measured to assess the ability of selected example compounds to inhibit the absorption of sodium from the intestinal lumen. Eight-week old Sprague-Dawley rats were purchased from Charles River Laboratories (Hollister, Calif.), were housed 2 per cage, and acclimated for at least 3 days before study initiation. Animals were fed Harlan Teklad Global 2018 rodent chow (Indianapolis, Ind.) and water ad libitum throughout the study and maintained in a standard light/dark cycle of 6 AM to 6 PM. On the day of the study, between 4 PM and 5 PM, a group of rats (n=6) were dosed via oral gavage with test compound at the dosage indicated or vehicle (water) at a volume of 10 mL/kg. After dose administration animals were placed in individual metabolic cages where they were also fed the same chow in meal form and watered ad libitum. At 16 h post-dose, the urine samples were collected and fecal form was assessed by two independent observations. Fecal forms were scored according to a common scale associated with increasing fecal water to the wettest observation in the cage's collection funnel (1, normal pellet; 2, pellet adhering to sides of collection funnel due to moisture; 3, loss of normal pellet shape; 4, complete loss of shape with a blotting pattern; 5, liquid fecal streams evident). A rat's fecal form score (FFS) was determined by averaging both observational scores for all rats within a group (n=6). In every study the vehicle group average was 1. For urine samples, the volumes were determined gravimetrically and centrifuged at 3,600×g. The supernatants were diluted 100-fold in deionized Milli-Q water then filtered through a 0.2 μm GHP Pall AcroPrep filter plate (Pall Life Sciences, Ann Arbor, Mich.) prior to analysis by ion chromatography. Ten microliters of each filtered extract was injected onto a Dionex ICS-3000 ion chromatograph system (Dionex, Sunnyvale, Calif.). Cations were separated by an isocratic method using 25 mM methanesulfonic acid as the eluent on an IonPac CS12A 2 mm i.d.×250 mm, 8 μm particle size cation exchange column (Dionex). Sodium was quantified using standards prepared from a cation standard mix containing Li^+, Na^+, NH4^+, K^+, Mg^2+, and Ca^2+ (Dionex). The mean mass of sodium urinated for every group in the 16 h period was determined with the vehicle group usually urinating approximately 21 mg sodium. The urine Na (uNa) for rats in the test groups were expressed as a percentage of the vehicle mean and the means were compared to that of the vehicle group by utilizing a one-way analysis of variance coupled with a Dunnett's post hoc test.

T2 sequence (P26433 29-831): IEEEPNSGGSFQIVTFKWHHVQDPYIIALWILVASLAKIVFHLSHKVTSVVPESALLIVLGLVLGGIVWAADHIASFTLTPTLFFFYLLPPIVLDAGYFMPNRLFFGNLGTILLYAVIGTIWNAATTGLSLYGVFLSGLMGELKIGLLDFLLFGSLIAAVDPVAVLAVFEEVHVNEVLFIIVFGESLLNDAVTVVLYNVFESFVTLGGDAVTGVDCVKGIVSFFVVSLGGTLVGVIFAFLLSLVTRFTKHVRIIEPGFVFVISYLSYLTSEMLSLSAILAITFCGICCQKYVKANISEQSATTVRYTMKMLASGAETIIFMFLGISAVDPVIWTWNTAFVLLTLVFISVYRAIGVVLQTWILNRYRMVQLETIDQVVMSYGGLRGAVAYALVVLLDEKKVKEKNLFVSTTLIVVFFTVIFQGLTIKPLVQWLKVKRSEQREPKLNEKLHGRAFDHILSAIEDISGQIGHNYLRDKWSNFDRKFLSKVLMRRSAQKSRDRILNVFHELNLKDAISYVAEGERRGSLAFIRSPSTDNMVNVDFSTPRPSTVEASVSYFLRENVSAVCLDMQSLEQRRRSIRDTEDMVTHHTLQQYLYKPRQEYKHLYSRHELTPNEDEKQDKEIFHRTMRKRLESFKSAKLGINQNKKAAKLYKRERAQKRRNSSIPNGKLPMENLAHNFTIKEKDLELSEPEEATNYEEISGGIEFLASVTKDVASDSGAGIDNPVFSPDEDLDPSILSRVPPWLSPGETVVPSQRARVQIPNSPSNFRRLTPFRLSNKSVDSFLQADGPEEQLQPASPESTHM

SMILES | Human NHE3 pIC50 (human NHE-3) | Rat NHE3 pIC50 (prompt) (Rat NHE-3 [1]) | Rat NHE3 pIC50 (persistent) (Rat NHE-3 [2]) | response vs control in vivo at 3 mg/kg [3] | IC50 (human NHE-3) | IC50 (Rat NHE-3 [1]) | IC50 (Rat NHE-3 [2]) | FFS ([3]; fecal form score, scale 1 (normal pellet) to 5 (liquid fecal streams), group average, 3 mg/kg oral, 16 h post-dose, vehicle = 1)
CN(CC(=O)O)CC(=O)NC(CCC(=O)NCCOCCOCCNS(=O)(=O)c1cccc([C@@H]2CN(C)Cc3c(Cl)cc(Cl)cc32)c1)(CCC(=O)NCCOCCOCCNS(=O)(=O)c1cccc([C@@H]2CN(C)Cc3c(Cl)cc(Cl)cc32)c1)CCC(=O)NCCOCCOCCNS(=O)(=O)c1cccc([C@@H]2CN(C)Cc3c(Cl)cc(Cl)cc32)c1 [Example 27] | C (C NHE3 pIC50 > 7) | C (C NHE3 pIC50 > 7) | C (C NHE3 pIC50 > 7) | 35 to 75% | – | – | – | –
CC(O)C(NC(=O)NC(CCC(=O)NCCOCCOCCNS(=O)(=O)c1cccc(C2CN(C)Cc3c(Cl)cc(Cl)cc32)c1)(CCC(=O)NCCOCCOCCNS(=O)(=O)c1cccc(C2CN(C)Cc3c(Cl)cc(Cl)cc32)c1)CCC(=O)NCCOCCOCCNS(=O)(=O)c1cccc(C2CN(C)Cc3c(Cl)cc(Cl)cc32)c1)C(N)=O (stereo not drawn) [Example 31] | C (C NHE3 pIC50 > 7) | C (C NHE3 pIC50 > 7) | C (C NHE3 pIC50 > 7) | < 35% | – | – | – | –
CN1Cc2c(Cl)cc(Cl)cc2[C@H](c2cccc(S(=O)(=O)NCCOCCOCCNC(=O)CCC(CCC(=O)NCCOCCOCCNS(=O)(=O)c3cccc([C@@H]4CN(C)Cc5c(Cl)cc(Cl)cc54)c3)(CCC(=O)NCCOCCOCCNS(=O)(=O)c3cccc([C@@H]4CN(C)Cc5c(Cl)cc(Cl)cc54)c3)NC(=O)Cc3nnn[nH]3)c2)C1 [Example 38] | C (C NHE3 pIC50 > 7) | B (B NHE3 pIC50 5-7) | C (C NHE3 pIC50 > 7) | < 35% | – | – | – | –
CC(=O)C(CCC(=O)NCCOCCOCCNS(=O)(=O)c1cccc([C@@H]2CN(C)Cc3c(Cl)cc(Cl)cc32)c1)(CCC(=O)NCCOCCOCCNS(=O)(=O)c1cccc([C@@H]2CN(C)Cc3c(Cl)cc(Cl)cc32)c1)CCC(=O)NCCOCCOCCNS(=O)(=O)c1cccc([C@@H]2CN(C)Cc3c(Cl)cc(Cl)cc32)c1 [Example 72, 4-acetyl-N1,N7-bis(2-(2-(2-(3-((S)-6,8-dichloro-2-methyl-1,2,3,4-tetrahydroisoquinolin-4-yl)phenylsulfonamido)ethoxy)ethoxy)ethyl)-4-(3-(2-(2-(2-(3-((S)-6,8-dichloro-2-methyl-1,2,3,4-tetrahydroisoquinolin-4-yl)phenylsulfonamido)ethoxy)ethoxy)ethylamino)-3-oxopropyl)heptanediamide] | – | – | – | 35 to 75% | 100 to 10000 nM | 100 to 10000 nM | < 100 nM | –
CN1CCN(C(=O)NC(CCC(=O)NCCOCCOCCNS(=O)(=O)c2cccc([C@@H]3CN(C)Cc4c(Cl)cc(Cl)cc43)c2)(CCC(=O)NCCOCCOCCNS(=O)(=O)c2cccc([C@@H]3CN(C)Cc4c(Cl)cc(Cl)cc43)c2)CCC(=O)NCCOCCOCCNS(=O)(=O)c2cccc([C@@H]3CN(C)Cc4c(Cl)cc(Cl)cc43)c2)CC1 [Example 41] | C (C NHE3 pIC50 > 7) | B (B NHE3 pIC50 5-7) | C (C NHE3 pIC50 > 7) | < 35% | – | – | – | –
CN1Cc2c(Cl)cc(Cl)cc2[C@H](c2cccc(S(=O)(=O)NCCOCCOCCNC(=O)NCCCC(CCCNC(=O)NCCOCCOCCNS(=O)(=O)c3cccc([C@@H]4CN(C)Cc5c(Cl)cc(Cl)cc54)c3)(CCCNC(=O)NCCOCCOCCNS(=O)(=O)c3cccc([C@@H]4CN(C)Cc5c(Cl)cc(Cl)cc54)c3)NC(=O)CCC(=O)O)c2)C1 [Example 63] | C (C NHE3 pIC50 > 7) | C (C NHE3 pIC50 > 7) | C (C NHE3 pIC50 > 7) | 35 to 75% | – | – | – | –
CN1Cc2c(Cl)cc(Cl)cc2[C@H](c2cccc(S(=O)(=O)NCCOCCOCCNC(=O)CCC(CCC(=O)NCCOCCOCCNS(=O)(=O)c3cccc([C@@H]4CN(C)Cc5c(Cl)cc(Cl)cc54)c3)(CCC(=O)NCCOCCOCCNS(=O)(=O)c3cccc([C@@H]4CN(C)Cc5c(Cl)cc(Cl)cc54)c3)NC(=O)NCP(=O)(O)O)c2)C1 [Example 32] | B (B NHE3 pIC50 5-7) | C (C NHE3 pIC50 > 7) | C (C NHE3 pIC50 > 7) | 35 to 75% | – | – | – | 2
CN1Cc2c(Cl)cc(Cl)cc2[C@H](c2cccc(S(=O)(=O)NCCOCCOCCNC(=O)CCC(CCC(=O)NCCOCCOCCNS(=O)(=O)c3cccc([C@@H]4CN(C)Cc5c(Cl)cc(Cl)cc54)c3)(CCC(=O)NCCOCCOCCNS(=O)(=O)c3cccc([C@@H]4CN(C)Cc5c(Cl)cc(Cl)cc54)c3)NC(N)=O)c2)C1 [Example 8, N1,N7-bis(2-(2-(2-(3-((S)-6,8-dichloro-2-methyl-1,2,3,4-tetrahydroisoquinolin-4-yl)phenylsulfonamido)ethoxy)ethoxy)ethyl)-4-(3-(2-(2-(2-(3-((S)-6,8-dichloro-2-methyl-1,2,3,4-tetrahydroisoquinolin-4-yl)phenylsulfonamido)ethoxy)ethoxy)ethylamino)-3-oxopropyl)-4-ureidoheptanediamide] | – | – | – | < 35% | < 100 nM | 100 to 10000 nM | < 100 nM | –
